Source: PubChem BioAssay AID1259407 (Chemical Carcinogenesis Research Information System (CCRIS), 2018)
Calls of active or inactive are those of the source. No rule for the calls is given here.

System: CCRIS mutagenicity, Ames/micronucleus/aberration tests
Assay: CCRIS mutagenicity studies
[1] = Test System: AMES SALMONELLA TYPHIMURIUM, Strain/Indicator: TA98, Metabolic Activation: NONE, Method: STANDARD PLATE
[2] = Test System: AMES SALMONELLA TYPHIMURIUM, Strain/Indicator: TA98, Metabolic Activation: RAT, LIVER, S-9, AROCLOR 1254, Method: STANDARD PLATE
[3] = Test System: AMES SALMONELLA TYPHIMURIUM, Strain/Indicator: TA100, Metabolic Activation: NONE, Method: STANDARD PLATE
[4] = Test System: AMES SALMONELLA TYPHIMURIUM, Strain/Indicator: TA100, Metabolic Activation: RAT, LIVER, S-9, AROCLOR 1254, Method: STANDARD PLATE
[5] = Test System: AMES SALMONELLA TYPHIMURIUM, Strain/Indicator: TA102, Metabolic Activation: NONE, Method: STANDARD PLATE
[6] = Test System: AMES SALMONELLA TYPHIMURIUM, Strain/Indicator: TA102, Metabolic Activation: RAT, LIVER, S-9, AROCLOR 1254, Method: STANDARD PLATE

Measured: mutagenic call

Cc1c(N(C)C)c(=O)n(-c2ccccc2)n1C
inactive: Test System: AMES SALMONELLA TYPHIMURIUM, Strain/Indicator: TA97, Metabolic Activation: NONE, Method: STANDARD PLATE inactive; negative | Test System: AMES SALMONELLA TYPHIMURIUM, Strain/Indicator: TA97, Metabolic Activation: RAT, LIVER, S-9, AROCLOR 1254, Method: STANDARD PLATE inactive; negative | Test System: AMES SALMONELLA TYPHIMURIUM, Strain/Indicator: TA98, Metabolic Activation: GUINEA PIG, LIVER, S-9, PCB, Method: PREINCUBATION inactive; negative | Test System: AMES SALMONELLA TYPHIMURIUM, Strain/Indicator: TA98, Metabolic Activation: HAMSTER, LIVER, S-9, PCB, Method: PREINCUBATION inactive; negative | Test System: AMES SALMONELLA TYPHIMURIUM, Strain/Indicator: TA98, Metabolic Activation: MOUSE, LIVER, S-9, PCB, Method: PREINCUBATION inactive; negative | Test System: AMES SALMONELLA TYPHIMURIUM, Strain/Indicator: TA98, Metabolic Activation: NONE, Method: PREINCUBATION inactive; negative | [1] inactive; negative | [2] inactive; negative | Test System: AMES SALMONELLA TYPHIMURIUM, Strain/Indicator: TA98, Metabolic Activation: RAT, LIVER, S-9, PCB, Method: PREINCUBATION inactive; negative | Test System: AMES SALMONELLA TYPHIMURIUM, Strain/Indicator: TA100(FR1), Metabolic Activation: NONE, Method: STANDARD PLATE inactive; negative | Test System: AMES SALMONELLA TYPHIMURIUM, Strain/Indicator: TA100(FR1), Metabolic Activation: RAT, LIVER, S-9, PHENOBARBITAL AND 3-METHYLCHOLANTHRENE, Method: STANDARD PLATE inactive; negative | Test System: AMES SALMONELLA TYPHIMURIUM, Strain/Indicator: TA100, Metabolic Activation: GUINEA PIG, LIVER, S-9, PCB, Method: PREINCUBATION inactive; negative | Test System: AMES SALMONELLA TYPHIMURIUM, Strain/Indicator: TA100, Metabolic Activation: HAMSTER, LIVER, S-9, PCB, Method: PREINCUBATION inactive; negative | Test System: AMES SALMONELLA TYPHIMURIUM, Strain/Indicator: TA100, Metabolic Activation: MOUSE, LIVER, S-9, PCB, Method: PREINCUBATION inactive; negative | Test System: AMES SALMONELLA TYPHIMURIUM, Strain/Indicator: TA100, Metabolic Activation: NONE, Method: PREINCUBATION inactive; negative | [3] inactive; negative | [4] inactive; negative | Test System: AMES SALMONELLA TYPHIMURIUM, Strain/Indicator: TA100, Metabolic Activation: RAT, LIVER, S-9, PCB, Method: PREINCUBATION inactive; negative | Test System: AMES SALMONELLA TYPHIMURIUM, Strain/Indicator: TA100, Metabolic Activation: RAT, LIVER, S-9, PHENOBARBITAL AND 3-METHYLCHOLANTHRENE, Method: STANDARD PLATE inactive; negative | [5] inactive; negative | [6] inactive; negative | Test System: AMES SALMONELLA TYPHIMURIUM, Strain/Indicator: TA104, Metabolic Activation: NONE, Method: STANDARD PLATE inactive; negative | Test System: AMES SALMONELLA TYPHIMURIUM, Strain/Indicator: TA104, Metabolic Activation: RAT, LIVER, S-9, AROCLOR 1254, Method: STANDARD PLATE inactive; negative | Test System: CHINESE HAMSTER V-79, Strain/Indicator: V-79/6-THIOGUANINE, Metabolic Activation: NONE inactive; negative | Test System: CHINESE HAMSTER V-79, Strain/Indicator: V-79/6-THIOGUANINE, Metabolic Activation: RAT, LIVER, HEPATOCYTES inactive; negative | Test System: CHINESE HAMSTER V-79, Strain/Indicator: V-79/OUABAIN, Metabolic Activation: NONE inactive; negative | Test System: CHINESE HAMSTER V-79, Strain/Indicator: V-79/OUABAIN, Metabolic Activation: RAT, LIVER, HEPATOCYTES inactive; negative

O=C(O)c1cc(Cl)ccc1O
inactive: Test System: AMES SALMONELLA TYPHIMURIUM, Strain/Indicator: TA1538, Metabolic Activation: NONE, Method: STANDARD PLATE inactive; negative | Test System: AMES SALMONELLA TYPHIMURIUM, Strain/Indicator: TA1538, Metabolic Activation: RAT,LIVER, S-9, AROCLOR 1254, Method: STANDARD PLATE inactive; negative

CCOCC=O
inactive: Test System: AMES SALMONELLA TYPHIMURIUM, Strain/Indicator: TA97A, Metabolic Activation: NONE, Method: STANDARD PLATE inactive; negative | Test System: AMES SALMONELLA TYPHIMURIUM, Strain/Indicator: TA97A, Metabolic Activation: RAT, LIVER, S-9, AROCLOR 1254, Method: STANDARD PLATE inactive; negative | [1] inactive; negative | [2] inactive; negative | [3] inactive; negative | [4] inactive; negative | [5] inactive; negative | [6] inactive; negative
